The assay has as its system Th17 cells. Kind of assay: Flow cytometry and intracellular cytokine staining of T cells. In kind it is cell-based, mouse. A general note: In flow cytometry, cells or beads pass a laser one at a time.

Molecules are shown by their SMILES.

Method: WT, CD5L−/− and Rorγt−/− Th17 cells were differentiated with TGF-1+IL-6 for 96h. […] Three independent experiments were performed. […] (FIG. 18E) Naïve WT T cells were activated without polarizing cytokines (Th0) and infected with retrovirus expressing Rorγt in the presence of control-RV or CD5L-RV with or without FF-MAS (5 uM) as a source of Rorγt ligand. Each dot represents an independent infection. (FIG. 18F) WT or CD5L−/− naïve cells were differentiated with TGF-β1+IL-6. At 48h, cells were replated in fresh media with either control or FF-MAS (5 uM) as a source of Rorγt ligand. Cells were harvested for FACS analysis 72h later.
T cell differentiation culture. Naïve CD4+CD44−CD62L+CD25− T cells or Effector memory CD4+CD44+CD62L− were sorted using BD FACSAria sorter and activated with plate-bound anti-CD3 and anti-CD28 antibodies (both at 2 μg/ml) in the presence of cytokines at a concentration of 2.5×10^5 cells/ml. For Th17 differentiation: 2 ng/ml of rhTGFβ1, 2 ng/ml of rhTGFβ3, 25 ng/ml rmIL-6, 20 ng/ml rmIL-18 (all from Miltenyi Biotec) and 20 ng/ml rmIL-23 (R & D systems) were used at various combinations as specified in figures. For Th1 differentiation, 20 ng/ml rmIL-12 (R & D systems); for Th2 differentiation 20 ng/ml rmIL-4 (Miltenyi Biotec); for iTreg differentiation, 2.5 ng/ml of rhTGFβ1 were used (Miltenyi Biotec). For differentiation experiments, cells were harvested at 48 hours. For restimulation experiments, cells were differentiated for 48 hours and resuspended in fresh media with no additional cytokines for 48-72 hours. Cells were re-stimulated with PMA/ionomycin for four hours before analysis for cytokines by intracellular cytokine staining. For experiments with exogenous fatty acid, fatty acids were purchased and resuspended first with serum-free media containing BSA prior being added to culture.
Flow cytometry and intracellular cytokine staining. Sorted naïve T cells were stimulated with phorbol 12-myristate 13-acetate (PMA) (50 ng/ml, Sigma-aldrich), ionomycin (1 μg/ml, Sigma-aldrich) and a protein transport inhibitor containing monensin (Golgistop) (BD Biosciences) for 4 h before detection by staining with antibodies.

`CC(C)=CCC[C@@H](C)[C@H]1CC=C2C3=C(CC[C@@]21C)[C@@]1(C)CC[C@H](O)C(C)(C)[C@@H]1CC3` [Rorγt ligand, FF-MAS]: the IL-17 expression entry (Th0 cells with ectopic Rorγt expression and CD5L-RV, FF-MAS 5 uM) is listed as “partially rescued”. Also, the IL-17 production entry (non-pathogenic Th17 cells (TGF-β1+IL-6), ligand (FF-MAS 5 uM) added at 48h, FACS 72h later) is “increased IL-17 production”.

(Values after patent US11427869B2, “T cell balance gene expression, compositions of matters and methods of use thereof” (THE BROAD INSTITUTE, INC., priority 2015, dated 2022).)
